# Measured values: patent publication US10351915B2 (Berg LLC, priority 2009, dated 2019)
# Tests used:
# [1] = tested on: a variety of cell types; experiment: Western blot analysis (Bcl-xL, Vimentin, oxidative phosphorylation and mitochondrial membrane proteins); assay type: cell-based; conditions: 50 or 100 μM Q10
# Method: Approximately 50 μg of protein were assayed per sample by immunoblotting. All treatments were run in triplicate with controls. […] The primary antibodies were incubated overnight at 4 degrees C. in a 5% BSA and TBST solution. Secondary antibodies were incubated for one hour at 4 degrees. All antibodies were purchased from Cell Signaling Technology. Antibodies were used at a ratio of 1:1000, with the exception of βActin at a ratio of 1:5000. Blots were developed and results were quantified using the NIH Java based densitometer analysis software Image J. All blots were also probed for and normalized to their respective βActin expression.
# The first experiment processed and evaluated by Western blot and 2-D gel electrophoresis was carried out on the skin cancer cell line SKMEL-28.
# A variety of cell types were evaluated by Western blot analysis against an antibody for Bcl-xL (FIG. 14), an antibody for Vimentin (FIG. 15), a series of antibodies for mitochondrial oxidative phosphorylation function (FIGS. 16-21) and against a series of antibodies related to mitochondrial membrane integrity (FIGS. 22-27).
# [2] = tested on: various cell types; experiment: Minimal CoQ10 concentration and treatment time for induction of early apoptosis (Bcl-2, caspase, annexin V); assay type: cell-based
# Method: CoQ10 treatment of cells was carried out as described in detail below in the Materials and Methods. Induction of apoptosis was assessed in the treated cells by monitoring indicators of early apoptosis (e.g., Bcl-2 expression, caspase activation and by using annexin V assays) as described below. From these studies, the minimal CoQ10 dosage, e.g., concentration of CoQ10 and time of treatment, required to induce apoptosis in the panel of cell lines was determined.
# Cells were cultured in T-75 flasks with relevant medium supplemented with 10% Fetal Bovine Serum (FBS), 1% PSA (penicillin, streptomycin, amphotericin B) (Invitrogen and Cellgro) in a 37° C. incubator with 5% CO2 levels until 70-80% confluence was reached. To harvest cells for treatment, flasks were primed with 1 mL Trypsin, aspirated, trypsinized with an additional 3 mL, and incubated at 37° C. for […]. Cells were then neutralized with an equal volμme of media and the subsequent solution was centrifuged at […] for 8 minutes. The supernatant was aspirated and the cells were resuspended with 8.5 ml of media. A mixture of 500 ul of the resuspension and 9.5 ml of […] was read twice by a coulter counter and the appropriate number of cells to be seeded into each dish was determined. Control and concentration ranging from 0-200 μM groups were examined in triplicate. From a 500 μM CoQ-10 stock solution, serial dilutions were performed to achieve desired experimental concentration in appropriate dishes. Dishes were incubated in a 37° C. incubator with 5% CO2 levels for 0-72 hours depending on cell type and experimental protocol.
# The volume of sample to load per well was determined using the raw mean concentration of protein obtained from the BCA protein assay. Approximately 30-60 μg of protein were loaded for each treatment time point. Proteins were run in triplicate on 12% Tris-HCl ready gels (Bio-Rad) or hand cast gels in 1× running buffer at 85 and 100 volts. Proteins were then transferred onto nitrocellulose paper for an hour at 100 volts, and blocked for another hour in a 5% milk solution. Membranes were placed in primary antibody (1 uL Ab:1000 uL TBST) (Cell Signaling) overnight at […] The following day, membranes were washed three times for ten minutes each with Tris-Buffered Saline Tween-20 (TBST), and secondary antibody (anti-rabbit; 1 uL Ab: 1000 uL TBST) was applied for an hour at […] Membranes were washed again three times for ten minutes with TBST and chemoluminescence using Pico or Femto substrate was completed (Pierce). Membranes were then developed at time intervals that produced the best visual results. After developing, membranes were kept in TBST at […] until Actin levels could be measured.
# Cells were washed twice in PBS10X and resuspended in Binding Buffer (0.1 M HEPES, pH 7.4; 1.4 M NaCl; 25 mM CaCl2). Samples of 100 μl were added to a culture tube with 5 μl of annexin-PE dye or […]. The cells were mixed and incubated without light at room temperature for 15 minutes. After which, 400 μl of 1× Binding Buffer was added to each sample and they were subjected to analysis by flow cytometry.
# [3] = tested on: HDFa cells; experiment: Extracellular acidification rate (ECAR), SeaHorse XF analyzer; assay type: cell-based, human
# Excerpt: (SeaHorse Biosciences Inc, North Billerica, Mass.).
# In this experiment, the OCR and extracellular acidification rate (ECAR) in normal cells lines were obtained in the presence and absence of CoQ10 to determine baseline values. It was observed that in its native nutrient environment, the basal OCR rates in normal cells lines are different, and are usually a function of the physiological roles of the cells in the body.
# Table 127 below describes the ECAR values (mpH/min) in HDFa cells in the presence or absence of CoQ10 under normoxic and hypoxic conditions at 5.5 mM and 22 mM glucose.
smiles,measurement,setting,value
"COC1=C(OC)C(=O)C(C/C=C(\C)CC/C=C(\C)CC/C=C(\C)CC/C=C(\C)CC/C=C(\C)CC/C=C(\C)CC/C=C(\C)CC/C=C(\C)CC/C=C(\C)CCC=C(C)C)=C(C)C1=O [Q10, Coenzyme Q10]",levels of examined proteins,[1],several of the examined proteins were upregulated or downregulated
same,"Indication of Early apoptosis (Bcl-2, annexin V, or caspase activation)",[2]; BONE: Ewing's sarcoma (NCI),Extremely
same,Minimal treatment Time for induction of early apoptosis,[2]; BONE: Ewing's sarcoma (NCI),1 h
same,"Indication of Early apoptosis (Bcl-2, annexin V, or caspase activation)",[2]; BONE: Osteosarcoma (143b),Very Strong
same,Minimal treatment Time for induction of early apoptosis,[2]; BONE: Osteosarcoma (143b),48 h
same,"Indication of Early apoptosis (Bcl-2, annexin V, or caspase activation)",[2]; BREAST: BT-20,Strong
same,Minimal treatment Time for induction of early apoptosis,[2]; BREAST: BT-20,48 h
same,"Indication of Early apoptosis (Bcl-2, annexin V, or caspase activation)",[2]; BREAST: MCF-7,Strong
same,Minimal treatment Time for induction of early apoptosis,[2]; BREAST: MCF-7,48 h
same,"Indication of Early apoptosis (Bcl-2, annexin V, or caspase activation)",[2]; BREAST: MDA MB 468,Strong
same,Minimal treatment Time for induction of early apoptosis,[2]; BREAST: MDA MB 468,48 h
same,"Indication of Early apoptosis (Bcl-2, annexin V, or caspase activation)",[2]; BREAST: SkBr-3,Very Strong
same,Minimal treatment Time for induction of early apoptosis,[2]; BREAST: SkBr-3,24 h
same,"Indication of Early apoptosis (Bcl-2, annexin V, or caspase activation)",[2]; BREAST: ZR-75,Slight
same,Minimal treatment Time for induction of early apoptosis,[2]; BREAST: ZR-75,72 h
same,"Indication of Early apoptosis (Bcl-2, annexin V, or caspase activation)",[2]; Heart: Aortic smooth muscle (HASMC),None
same,"Indication of Early apoptosis (Bcl-2, annexin V, or caspase activation)",[2]; LIVER: Hep3B,Very Strong
same,Minimal treatment Time for induction of early apoptosis,[2]; LIVER: Hep3B,24 h
same,"Indication of Early apoptosis (Bcl-2, annexin V, or caspase activation)",[2]; LIVER: HepG2,Very Strong
same,Minimal treatment Time for induction of early apoptosis,[2]; LIVER: HepG2,24 h
same,"Indication of Early apoptosis (Bcl-2, annexin V, or caspase activation)",[2]; Mammary fiboblasts: 184A1 and 184B5,None
same,"Indication of Early apoptosis (Bcl-2, annexin V, or caspase activation)",[2]; Melanoma (Skmel 2),Very Strong
same,Minimal treatment Time for induction of early apoptosis,[2]; Melanoma (Skmel 2),24 h
same,"Indication of Early apoptosis (Bcl-2, annexin V, or caspase activation)",[2]; Melanoma (Skmel 28),Strong
same,Minimal treatment Time for induction of early apoptosis,[2]; Melanoma (Skmel 28),24 h
same,"Indication of Early apoptosis (Bcl-2, annexin V, or caspase activation)",[2]; PANCREAS: PaCa2,Very Strong
same,Minimal treatment Time for induction of early apoptosis,[2]; PANCREAS: PaCa2,24 h
same,"Indication of Early apoptosis (Bcl-2, annexin V, or caspase activation)",[2]; PROSTATE: PC3,Very Strong
same,Minimal treatment Time for induction of early apoptosis,[2]; PROSTATE: PC3,24 h
same,"Indication of Early apoptosis (Bcl-2, annexin V, or caspase activation)","[2]; SCC, Squamous cell carcinoma",Very Strong
same,Minimal treatment Time for induction of early apoptosis,"[2]; SCC, Squamous cell carcinoma",24 h
same,"Indication of Early apoptosis (Bcl-2, annexin V, or caspase activation)",[2]; SKIN: Fibroblasts (nFib),None
same,"Indication of Early apoptosis (Bcl-2, annexin V, or caspase activation)","[2]; SKIN: Keratinocytes (Heka, Hekn)",None
same,"Indication of Early apoptosis (Bcl-2, annexin V, or caspase activation)","[2]; SKIN: Melanocytes (Hema, LP)",None
same,effect on normal cells,"[2]; normal cells, including keratinocytes and dermal fibroblasts",increased proliferation and migration
same,efficacy of Coenzyme Q10 treatment (induction of apoptosis),[2]; oncogenic cell lines,greater in cell types that exhibited increased oncogenicity and/or greater metastatic potential
same,ECAR,[3]; high glucose hypoxic conditions,lowering of elevated ECAR
same,ECAR values,"[3]; normoxic and hypoxic, 5.5 mM and 22 mM glucose",minimal influence on ECAR values
